Reference: article PMC7714403 (JCI Insight, 2020)
Where two headings read alike, the source gives them in different places.

Legend:
[1] = target: FLT3 ITD (Homo sapiens, UniProt P36888, ITD); assay: Kinase assay by Reaction Biology; type: biochemical; conditions: enzymatic kinase assay
[2] = test system: HS5 human MSCs; assay: MTT viability assay of stromal cells; type: cell-based
Protocol: Cell viability of primary samples
HS5-GFP human bone marrow stromal cells were plated and cultured for 72 hours to near confluence.
MOLM13 cells were then seeded onto HS5-GFP cells to establish a co-culture. Twenty-four hours later, cells were treated with increasing concentrations of drug for an additional 72 hours. MOLM13 and HS5-GFP cells were then separated and MTT assay s were performed for cell viability assessment of each cell population.
For murine or human primary AML cells, 100,000 cells/well were plated in a 96-well plate and treated with increasing concentrations of drug. Cell viability, via trypan blue, was measured every 24 hours. If the viability fell below 50% or at 72 hours of treatment, whichever came earlier, cell viability of each plate was measured via CellTiter-Glo. Primary human AML cells were obtained from the OSUCCC Leukemia Tissue Bank Shared […]
For primary human fibroblasts, cells were plated at 10,000 cells/well in a 96-well plate and cultured for 24 hours. After 24 hours, cells were treated with drug for 72 hours. A MTT assay was performed to assess cell […]
Primary AML samples were analyzed by targeted gene sequencing of 80 genes, as previously described (1). Samples were pooled and analyzed on a MiSeq system using the Illuminia MiSeq Reagent Kit v3. Ill umina Isis Banded Smith Waterman aligner and hg19 genome were used to align the sequences. […]

[3] = target: CSK (Homo sapiens, UniProt P41240); assay: KiNativ, OCI cells live cell; type: cell-based
Chain of CSK (P41240 whole entry, the tested form may be a part): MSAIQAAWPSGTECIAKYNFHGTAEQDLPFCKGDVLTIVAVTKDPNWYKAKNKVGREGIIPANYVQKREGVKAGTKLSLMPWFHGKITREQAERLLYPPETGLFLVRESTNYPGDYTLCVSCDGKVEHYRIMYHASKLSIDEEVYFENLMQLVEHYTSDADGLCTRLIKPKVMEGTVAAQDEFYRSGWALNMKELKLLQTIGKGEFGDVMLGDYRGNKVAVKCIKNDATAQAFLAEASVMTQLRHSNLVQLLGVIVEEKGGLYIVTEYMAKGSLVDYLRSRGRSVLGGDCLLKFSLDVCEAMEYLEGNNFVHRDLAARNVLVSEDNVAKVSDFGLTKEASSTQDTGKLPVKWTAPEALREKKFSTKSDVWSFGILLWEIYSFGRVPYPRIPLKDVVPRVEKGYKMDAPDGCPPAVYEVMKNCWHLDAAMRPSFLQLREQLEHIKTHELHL

[4] = target: T1, JAK2 domain2 (Homo sapiens, UniProt O60674); assay: KiNativ, OCI cells live cell; type: cell-based; conditions: labeling site Activation Loop, peptide IGDFGLTKVLPQDKEYYK
T1 construct: JAK2 domain2
T1 sequence (O60674 whole entry, the tested form may be a part): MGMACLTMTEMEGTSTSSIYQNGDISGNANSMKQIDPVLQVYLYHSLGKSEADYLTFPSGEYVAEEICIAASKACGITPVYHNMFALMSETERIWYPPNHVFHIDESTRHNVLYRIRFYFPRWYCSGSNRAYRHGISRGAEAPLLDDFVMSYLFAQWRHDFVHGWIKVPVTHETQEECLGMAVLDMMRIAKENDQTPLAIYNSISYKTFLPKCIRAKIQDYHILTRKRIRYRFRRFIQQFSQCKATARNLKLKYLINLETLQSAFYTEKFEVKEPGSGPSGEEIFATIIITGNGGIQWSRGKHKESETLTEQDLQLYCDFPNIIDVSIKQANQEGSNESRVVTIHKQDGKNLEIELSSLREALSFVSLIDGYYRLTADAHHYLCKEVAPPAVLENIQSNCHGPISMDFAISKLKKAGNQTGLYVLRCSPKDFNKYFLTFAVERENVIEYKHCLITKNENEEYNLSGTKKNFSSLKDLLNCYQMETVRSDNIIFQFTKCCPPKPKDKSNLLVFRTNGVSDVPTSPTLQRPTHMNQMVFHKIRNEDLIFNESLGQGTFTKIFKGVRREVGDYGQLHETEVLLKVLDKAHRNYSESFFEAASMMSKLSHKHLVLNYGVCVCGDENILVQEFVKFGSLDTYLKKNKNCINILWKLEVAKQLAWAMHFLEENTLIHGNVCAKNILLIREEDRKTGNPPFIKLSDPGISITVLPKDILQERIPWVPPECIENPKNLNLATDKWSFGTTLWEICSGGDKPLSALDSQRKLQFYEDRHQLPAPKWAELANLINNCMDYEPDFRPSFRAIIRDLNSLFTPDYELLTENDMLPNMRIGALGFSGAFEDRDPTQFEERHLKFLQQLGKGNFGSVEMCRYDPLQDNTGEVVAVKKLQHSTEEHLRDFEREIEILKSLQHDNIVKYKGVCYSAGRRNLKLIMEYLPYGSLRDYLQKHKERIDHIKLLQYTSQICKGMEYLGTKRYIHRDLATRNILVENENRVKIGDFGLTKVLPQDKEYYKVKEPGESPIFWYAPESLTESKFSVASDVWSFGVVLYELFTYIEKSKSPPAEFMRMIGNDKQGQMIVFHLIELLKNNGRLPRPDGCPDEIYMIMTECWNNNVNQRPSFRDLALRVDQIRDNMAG

[5] = target: MAST3 (Homo sapiens, UniProt O60307); assay: KiNativ, OCI cells live cell; type: cell-based; conditions: 2 h, labeling site Lys2, peptide […]
Chain of MAST3 (O60307 whole entry): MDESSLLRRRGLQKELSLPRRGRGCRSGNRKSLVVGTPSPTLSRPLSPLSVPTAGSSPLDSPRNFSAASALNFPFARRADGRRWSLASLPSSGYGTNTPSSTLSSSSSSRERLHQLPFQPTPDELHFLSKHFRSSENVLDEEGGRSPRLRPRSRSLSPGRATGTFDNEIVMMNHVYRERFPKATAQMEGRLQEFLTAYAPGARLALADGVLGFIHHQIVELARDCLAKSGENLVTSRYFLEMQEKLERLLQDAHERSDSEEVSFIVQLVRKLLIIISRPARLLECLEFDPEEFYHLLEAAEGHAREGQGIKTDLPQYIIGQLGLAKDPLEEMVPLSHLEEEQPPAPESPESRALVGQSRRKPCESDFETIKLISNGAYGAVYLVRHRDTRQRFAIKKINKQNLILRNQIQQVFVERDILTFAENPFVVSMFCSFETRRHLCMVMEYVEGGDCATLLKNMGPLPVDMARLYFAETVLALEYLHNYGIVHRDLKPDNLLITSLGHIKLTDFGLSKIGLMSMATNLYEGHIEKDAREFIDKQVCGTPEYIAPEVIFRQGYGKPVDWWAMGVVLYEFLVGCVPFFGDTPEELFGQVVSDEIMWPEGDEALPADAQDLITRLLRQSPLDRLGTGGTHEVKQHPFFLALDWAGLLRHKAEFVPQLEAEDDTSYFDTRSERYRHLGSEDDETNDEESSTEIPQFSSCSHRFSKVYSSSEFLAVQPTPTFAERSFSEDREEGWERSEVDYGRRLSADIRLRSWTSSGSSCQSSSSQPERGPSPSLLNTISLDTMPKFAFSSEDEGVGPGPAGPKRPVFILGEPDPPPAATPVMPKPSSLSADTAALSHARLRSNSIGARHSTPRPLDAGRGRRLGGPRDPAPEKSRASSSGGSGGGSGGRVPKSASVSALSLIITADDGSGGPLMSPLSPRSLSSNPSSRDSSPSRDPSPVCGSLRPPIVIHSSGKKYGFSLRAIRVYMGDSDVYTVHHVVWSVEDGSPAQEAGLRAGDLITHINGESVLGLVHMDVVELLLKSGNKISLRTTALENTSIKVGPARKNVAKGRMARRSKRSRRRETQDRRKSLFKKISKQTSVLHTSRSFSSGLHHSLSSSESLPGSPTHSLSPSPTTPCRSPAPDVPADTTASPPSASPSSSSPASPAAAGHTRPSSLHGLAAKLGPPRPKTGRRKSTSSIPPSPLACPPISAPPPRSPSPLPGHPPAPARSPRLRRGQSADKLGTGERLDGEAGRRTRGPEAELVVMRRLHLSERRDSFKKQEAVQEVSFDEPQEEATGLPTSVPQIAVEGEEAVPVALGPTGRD

[6] = target: NEK3 (Homo sapiens, UniProt P51956); assay: KiNativ, OCI cells live cell; type: cell-based; conditions: 2 h, labeling site Activation Loop, peptide […]
Chain of NEK3 (P51956 whole entry): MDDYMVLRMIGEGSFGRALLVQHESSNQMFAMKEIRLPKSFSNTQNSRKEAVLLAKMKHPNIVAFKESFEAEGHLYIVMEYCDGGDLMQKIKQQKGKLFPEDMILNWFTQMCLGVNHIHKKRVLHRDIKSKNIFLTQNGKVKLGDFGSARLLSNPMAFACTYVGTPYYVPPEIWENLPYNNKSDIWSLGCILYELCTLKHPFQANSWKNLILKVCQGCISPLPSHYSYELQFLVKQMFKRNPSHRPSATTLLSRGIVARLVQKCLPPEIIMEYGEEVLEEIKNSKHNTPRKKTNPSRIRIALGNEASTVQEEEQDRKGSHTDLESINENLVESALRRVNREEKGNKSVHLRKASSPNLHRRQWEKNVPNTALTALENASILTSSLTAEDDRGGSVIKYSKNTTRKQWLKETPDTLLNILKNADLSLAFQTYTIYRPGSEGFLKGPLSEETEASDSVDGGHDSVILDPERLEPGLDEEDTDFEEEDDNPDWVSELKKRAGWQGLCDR

[7] = target: T2, NEK9 (Homo sapiens, UniProt Q8TD19); assay: KiNativ, OCI cells live cell; type: cell-based; conditions: 2 h
T2 sequence (Q8TD19 1-979): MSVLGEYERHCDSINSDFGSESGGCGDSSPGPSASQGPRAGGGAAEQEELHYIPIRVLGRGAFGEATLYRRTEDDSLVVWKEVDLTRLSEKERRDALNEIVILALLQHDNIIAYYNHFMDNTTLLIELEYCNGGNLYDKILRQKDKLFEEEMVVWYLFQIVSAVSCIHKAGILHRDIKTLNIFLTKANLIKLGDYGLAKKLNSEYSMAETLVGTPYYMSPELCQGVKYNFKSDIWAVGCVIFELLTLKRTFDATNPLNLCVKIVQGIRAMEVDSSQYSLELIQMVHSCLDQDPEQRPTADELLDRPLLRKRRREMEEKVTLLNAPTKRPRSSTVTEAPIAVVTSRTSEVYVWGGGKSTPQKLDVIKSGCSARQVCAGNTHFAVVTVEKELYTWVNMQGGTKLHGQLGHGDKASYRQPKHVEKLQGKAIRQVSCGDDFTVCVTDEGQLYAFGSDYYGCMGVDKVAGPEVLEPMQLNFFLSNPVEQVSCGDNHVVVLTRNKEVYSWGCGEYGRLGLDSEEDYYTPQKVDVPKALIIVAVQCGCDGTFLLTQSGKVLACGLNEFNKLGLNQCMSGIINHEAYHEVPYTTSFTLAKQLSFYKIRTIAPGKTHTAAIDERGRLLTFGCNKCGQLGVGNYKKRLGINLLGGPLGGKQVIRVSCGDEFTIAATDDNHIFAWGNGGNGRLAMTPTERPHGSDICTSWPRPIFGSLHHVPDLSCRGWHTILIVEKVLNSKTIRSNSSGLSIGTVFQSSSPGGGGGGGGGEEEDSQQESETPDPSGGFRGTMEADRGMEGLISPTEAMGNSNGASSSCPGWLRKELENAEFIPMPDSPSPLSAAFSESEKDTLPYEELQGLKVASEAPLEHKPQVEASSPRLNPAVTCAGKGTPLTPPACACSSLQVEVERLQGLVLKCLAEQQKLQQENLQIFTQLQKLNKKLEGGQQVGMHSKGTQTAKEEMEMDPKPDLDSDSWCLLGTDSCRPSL

[8] = test system: PCTAIRE1, PCTAIRE3; assay: KiNativ, OCI cells live cell; type: cell-based, human; conditions: labeling site Lys2, peptide DLKPQNLLINER
[9] = target: SBK (Homo sapiens, UniProt Q52WX2); assay: KiNativ, OCI cells live cell; type: cell-based; conditions: 2 h, labeling site Lys2, peptide […]
Chain of SBK (Q52WX2 whole entry): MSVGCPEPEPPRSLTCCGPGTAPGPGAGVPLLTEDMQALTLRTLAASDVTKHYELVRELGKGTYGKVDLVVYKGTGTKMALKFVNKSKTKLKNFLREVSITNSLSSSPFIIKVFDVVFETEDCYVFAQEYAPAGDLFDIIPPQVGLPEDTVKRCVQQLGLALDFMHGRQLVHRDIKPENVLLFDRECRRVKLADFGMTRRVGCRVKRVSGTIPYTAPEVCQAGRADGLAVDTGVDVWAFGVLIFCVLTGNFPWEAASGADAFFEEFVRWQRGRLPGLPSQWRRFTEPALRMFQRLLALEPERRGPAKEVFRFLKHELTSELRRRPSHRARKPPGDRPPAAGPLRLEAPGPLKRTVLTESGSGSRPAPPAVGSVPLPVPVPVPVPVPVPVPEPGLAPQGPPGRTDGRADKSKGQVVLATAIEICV

Chain of FLT3 ITD (P36888 564-993, change not shown): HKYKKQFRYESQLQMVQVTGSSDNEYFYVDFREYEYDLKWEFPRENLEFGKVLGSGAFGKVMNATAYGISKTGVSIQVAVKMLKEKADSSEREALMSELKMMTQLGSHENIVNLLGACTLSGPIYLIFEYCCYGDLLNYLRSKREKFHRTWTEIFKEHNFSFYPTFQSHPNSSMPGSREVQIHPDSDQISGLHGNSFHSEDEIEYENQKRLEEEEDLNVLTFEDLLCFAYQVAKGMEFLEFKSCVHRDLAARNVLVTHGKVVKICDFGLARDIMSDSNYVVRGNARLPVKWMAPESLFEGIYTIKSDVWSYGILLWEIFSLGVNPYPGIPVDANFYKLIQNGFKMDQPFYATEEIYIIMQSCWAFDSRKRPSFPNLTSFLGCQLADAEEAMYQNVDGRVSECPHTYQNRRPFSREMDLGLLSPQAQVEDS

For `CN1CCN(Cc2ccc(Nc3ncc(Cl)c(Nc4ccccc4S(=O)(=O)N(C)C)n3)cc2)CC1` [TP-0903], the IC50 [1] was 3.9 nM, the “Concentrations not cytotoxic to HS5 human MSCs” value [2] was under 250 nM and the Inhibition ([3]; labeling site Activation Loop, peptide VSDFGLTKEASSTQDTGKLPVK) was 11.9%. It also gave an Inhibition ([3]; labeling site Lys1, peptide VAVKCIK) of 0.379%, an Inhibition [4] of 36.2% and an inhibition at 0.1 µM [5] of -0.112%. It also gave an inhibition at 0.1 µM [6] of -11.9%, an inhibition at 0.1 µM [7] of 37.9% and an inhibition at 0.1 µM ([7]; OCI cells, live cell, labeling site Activation Loop, peptide LGDYGLAKK, read-out: Inhibition) of 39.6%. For the same molecule, the inhibition at 0.1 µM ([7]; OCI cells, live cell, labeling site Lys1, peptide RTEDDSLVVWKEVDLTR, read-out: Inhibition) was 40.8%, the Inhibition [8] was 79.0% and the inhibition at 0.1 µM [9] was -0.9%.
